This is an account of results in patent US12583820B2, “Broad spectrum antivirals against coronavirus” (priority 2020, dated 2026).

The target in one data set is NV 3CLpro (Norovirus, UniProt Q83883). Put plainly: biochemical. The class given is biochemical.
For data set [1], the system named is NV in the replicon harboring cells (HG23 cells). Put plainly: microbe, parasite or virus in culture. The class given is cell-based, norovirus (NV).
A short description of the next data set: in vitro. As to conditions: human.
A further data set concerns MERS-CoV. Put plainly: microbe, parasite or virus in culture. The class given is cell-based.
Another data set has as its target T1, 3CLpro of SARS-CoV-2 (Severe acute respiratory syndrome coronavirus 2, UniProt P0DTD1).
T1 construct: The codon-optimized cDNA of full length of 3CLpro of SARS-CoV-2; 6xHis (N); made in house; pET-28a(+) vector (points to E. coli, my inference)
Briefly: biochemical. The class given is biochemical.

In the next data set the test system is SARS-CoV-2. Put plainly: microbe, parasite or virus in culture. It counts as cell-based.
A further data set concerns the target 3CLpro of MERS-CoV (Middle East respiratory syndrome-related coronavirus, UniProt K9N7C7). Put plainly: biochemical. The class given is biochemical.
A further data set deals with MHV-1. Briefly: microbe, parasite or virus in culture. It counts as cell-based, mouse hepatitis virus (MHV). As to conditions: Murine coronavirus, read-out: EC50 in cell culture (μM) MHV.
The subject of a further data set is FIPV. Put plainly: microbe, parasite or virus in culture. It counts as cell-based. As to conditions: Alphacoronavirus 1, CRFK, read-out: EC50 in cell culture (μM) FIPV.
The next data set deals with 3CLpro of SARS-CoV (Severe acute respiratory syndrome coronavirus, UniProt P0C6X7). The class given is biochemical. As to conditions: read-out: IC50 in enzyme assay (μM) SARS-CoV.
Data set [2] in a line: Nonspecific cytotoxic effects (CC50), CytoTox 96 kit. As to conditions: Huh-7, CRFK or CCL1 cells (confluent, 96-well plates).
Data set [3] relates to Huh-7, CRFK or CCL1 cells. The description is as above. As to conditions: 72 h, 1 to 100 μM, Table 1.
For data set [4], the system named is feline infectious peritonitis (FIP), a coronavirus-induced systemic disease. As to conditions: cited from earlier work.
[5] abbreviates: Norovirus, HG23, read-out: EC50 (μM) ± SD.

Structures are written as SMILES. Where two headings read alike, the source gives them in different places. Bounds are passed on as bounds.

Chain of NV 3CLpro (Q83883 1101-1281): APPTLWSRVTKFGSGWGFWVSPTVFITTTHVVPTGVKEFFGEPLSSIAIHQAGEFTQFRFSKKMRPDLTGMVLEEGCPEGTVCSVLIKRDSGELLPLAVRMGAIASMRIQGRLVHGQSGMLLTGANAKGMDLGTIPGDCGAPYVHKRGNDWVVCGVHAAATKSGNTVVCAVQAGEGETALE
Chain of 3CLpro of MERS-CoV (K9N7C7 3248-3553 limits assumed): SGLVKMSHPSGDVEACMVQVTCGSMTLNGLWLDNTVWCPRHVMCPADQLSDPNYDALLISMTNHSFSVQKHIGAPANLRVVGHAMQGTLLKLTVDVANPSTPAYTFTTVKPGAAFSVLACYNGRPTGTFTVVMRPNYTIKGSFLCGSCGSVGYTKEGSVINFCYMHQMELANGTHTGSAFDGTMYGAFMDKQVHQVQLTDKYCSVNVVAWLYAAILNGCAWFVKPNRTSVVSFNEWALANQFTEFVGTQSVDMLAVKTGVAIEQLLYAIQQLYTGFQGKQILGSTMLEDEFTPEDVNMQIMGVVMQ

In general, IC50 refers to the concentration needed to halve the response being measured. One may read the EC50 as the concentration at which the effect is half-maximal. For `O=C[C@H](C[C@@H]1CCNC1=O)NC(=O)[C@H](CC1CCCCC1)NC(=O)OC/C=C/c1cccc(Cl)c1` [Compound 5s], at NV 3CLpro, the midpoint of inhibition, the IC50, lay at 0.14 ± 0.01 µM. Also, the EC50 in [1] (setting [5]) turned out to be 0.06 ± 0.01 µM. This compound came in with a CC50 in the data set “in vitro” of 24.1 ± 0.6 µM.

Take `CC(C)C[C@H](NC(=O)OCC(C)(C)c1cccc(Cl)c1)C(=O)N[C@H](C=O)C[C@@H]1CCNC1=O` [Compound 5g (Scheme 2)]: the EC50 in the data set on MERS-CoV (read-out: MERS-CoV EC50 (μM) Cell culture) is 0.05 µM; in the data set on SARS-CoV-2 (read-out: SARS-CoV-2 EC50 (μM) Cell culture), 0.18 µM; in data set [1] (read-out: EC50 (μM) ± SD), 0.17 ± 0.05 µM. Moreover, the figures for the half-inhibitory concentration (IC50) on NV 3CLpro (read-out: IC50 (μM) ± SD), on 3CLpro of SARS-CoV-2 (read-out: SARS-CoV-2 IC50 (μM) enzyme) and at 3CLpro of MERS-CoV (read-out: MERS-CoV IC50(μM) Enzyme) were 0.27 ± 0.04 µM, 0.3 µM and 0.08 µM, respectively. For the same compound, in the data set on HG23 cells, the CC50 is over 100 µM.

Regarding `CCCCC1CCC(OC(=O)N[C@@H](CC(C)C)C(=O)N[C@H](C=O)C[C@@H]2CCNC2=O)CC1` (stereo partly drawn) [Compound 6e (Scheme 1), 4-butylcyclohexyl ((S)-4-methyl-1-oxo-1-(((S)-1-oxo-3-((S)-2-oxopyrrolidin-3-yl)propan-2-yl)amino)pentan-2-yl)carbamate], the EC50 in the data set on MHV-1 was determined as 0.12 µM; in the data set with SARS-CoV-2 (Severe acute respiratory syndrome coronavirus 2, Vero C1008, read-out: EC50 in cell culture (μM) SARS-CoV-2) it was 0.1 µM; in the data set with FIPV, 0.22 µM. The IC50 at 3CLpro of SARS-CoV-2 is 0.8 µM; on 3CLpro of SARS-CoV, 0.9 µM; at 3CLpro of MERS-CoV (read-out: IC50 in enzyme assay (μM) MERS-CoV) it was 0.15 µM. This compound showed a CC50 at 72 h in data set [2] of over 100 µM.

In turn, `O=C[C@H](C[C@@H]1CCNC1=O)NC(=O)[C@H](CC1CCCCC1)NC(=O)OC1(c2cccc(Cl)c2)CC1` [Compound 5q] came in with an IC50 against NV 3CLpro of 0.28 ± 0.06 µM. For the same compound, the 50% effective concentration (EC50) in [1] (setting [5]) was determined as 0.25 ± 0.07 µM. The compound also had a CC50 in “in vitro” of 36.5 ± 7.1 µM.

Take `CC(C)C[C@H](NC(=O)OCc1ccccc1)C(=O)N[C@@H](C[C@@H]1CCNC1=O)C(O)S(=O)(=O)[O-].[Na+]` (some centres unmarked) [GC376, reference compound]: in the data set on MERS-CoV (read-out: EC50 in cell culture (μM) MERS-CoV), the EC50 is […]. The compound further returned a CC50 in data set [3] of over 100 µM. For the same compound, the “clinical efficacy in cats with feline infectious peritonitis (FIP)” value in data set [4] is “reversed the progression of FIP and resulted in clinical remission”.

For `CC(C)C[C@H](NC(=O)OC1(c2cccc(Cl)c2)CC1)C(=O)N[C@H](C=O)C[C@@H]1CCNC1=O` [Compound 5r], the midpoint of inhibition on NV 3CLpro, the IC50, lay at 0.28 ± 0.03 µM. Further, in [1] (setting [5]), the 50% effective concentration (EC50) was determined as 0.65 ± 0.2 µM. The CC50 in “in vitro” is over 100 µM.

The compound `CC(C)C[C@H](NC(=O)OC/C=C/c1cccc(Cl)c1)C(=O)N[C@H](C=O)C[C@@H]1CCNC1=O` [Compound 5t] came in with an IC50 on NV 3CLpro of 0.15 ± 0.05 µM. For the same compound, in [1] (setting [5]), the EC50 is 0.08 ± 0.01 µM. This compound also showed a CC50 in the data set “in vitro” of over 100 µM.
